Patent US6596878B2, “Methods and compositions for inhibiting cell proliferative disorders” (Yissum Research & Development Company of the Hebrew …, priority 1994, dated 2003)

Tests used:
Type in all cases: cell-based
[1] = molecular target: T1, PDGFR-β (Homo sapiens, UniProt P09619); experiment: PDGFR-β cellular kinase assay (U1242 cells); details: Table V, read-out: Estimated IC50 Cellular Kinase Assays PDGFR-β
T1 construct: the human glioblastoma line U1242 that expresses PDGFR-β; endogenous in cells; host or cells: U1242 human glioblastoma cells
Description: (§1) This example illustrates the ability of the exemplary compounds to inhibit receptor tyrosine kinases, such as HER2 and/or EGFR. The following target cells were used for cellular kinaseassays: NIH3T3 clone C7 (Honegger et al., supra) engineered to over-express human EGF receptor; NIH3T3 cells engineered to over-express a chimeric receptor containing the EGFR extracellular domain and the HER2 intracellular kinase domain; the human mammary carcinoma line BT474 (ATCC HTB2) expressing HER2; and the human glioblastoma line U1242 that expresses PDGFR-β. Growth assays were carried out using human mammary epithelial SKBR3 (ATCC HTB30) cells, SKOV3 (ATCC HTB77) human ovarian cancer cell line, A431 cells, MCF7 human breast carcinoma cells, MCF7 cells overexpress the HER2 kinase (MCF7-HER2), NIH3T3 cells, and NIH3T3 cells overexpressing the HER2 kinase (3T3-HER2).

[2] = tested on: SKBR3 cells; experiment: SKBR3 growth assay (sulphorhodamine B); details: Homo sapiens, SK-BR-3, 96 h; Table V; 4 days, SRB; read-out: Estimated IC50 Growth Assays SKBR3 cells
Description: as §1
SKBR3 cells over-express HER2. A431 cells over-express EGFR. These cells were dispensed into 96-well plates with test compounds. After 4 days the monolayers were TCA-fixed then stained with sulphorhodamine B. The absorbance versus log drug concentration was plotted and IC50 values estimated.
(4) Tris, crystallized free base—Fisher Catalog #BP152 Working solution: 10 mM tris=1.211 gram Trizma base/liter H2O.
(5) Aspirate growth media from 96 well plate containing control cells or cell treated with compounds, rinse wells 2 or 3 times with PBS and layer 200 μl cold 10% TCA onto each well. Fix cells for 60 minutes at 4° C.
(6) Discard TCA and rinse wells 5 times with distilled H2O. Dry plate upside down on paper towel.
(7) Stain fixed cells for 10 minutes with 100 μl 0.4% SRB per well.
(8) Pour off SRB solution and rinse wells 5 times with 1% acetic acid.
(9) Dry plate upside down on paper towel.
(10) After wells are completely dry, solubilize dye with 100 μl 10 mM Tris base per well for 5-10 minutes on titer plate shaker.
(11) Read optical density at dual wavelength mode 570 nm and 630 nm on Dynatech ELISA plate reader, Model MR 5000.

[3] = tested on: NIH3T3 cells overexpressing the HER2 kinase (3T3-HER2); experiment: 3T3 growth assay, HER2C7 cells (3T3-HER2); details: Mus musculus, NIH3T3, 96 h, Table VI, 2% FBS, 4 days
Description: as §1
The 3T3 growth assay was carried out as follows:
(1) Dulbecco's Modified Eagle Medium (D-MEM), Gibco 11965-050;
(4) Fetal Bovine Serum Certified, Gibco 16000-028;
(5) Dulbecco's Phosphate-Buffered Saline (D-PBS), Gibco 14190-029;
(6) Sulforhodamine B (SRB), Sigma S-9012. 0.4% SRB in 1% acetic acid;
(7) 10 mM Tris-base, Fisher BP152-5;
(8) 10% TCA, Trichloroacetic acid, Fisher A322-500;
(9) 96-well flat bottom plate (sterile), Corning 08-757-155;
(10) 100 ml reagent reservoir 9 (sterile), Matrix Technologies Corporation, 8086;
(11) Sterile pipet tips, Fisher 21-197-8E;
NIH3T3C7 cells in 10% CS+2 mM GLN DMEM HER2C7 cells in 2% FBS+2 mM GLN DMEM
(1) HER2C7 (engineered to express HER2) and NIH3T3C7 (as the control) cells are used for this assay. NIH3T3C7 cells are seeded at 2500 cells/well, […] in 10% CS+2 mM GLN DMEM, in a 96 well plate; HER2C7 cells are seeded at 6000 cells/well, 100 μl/well in 2% FBS+2 mM GLN DMEM, in a 96 well plate. Cells are incubated at 37° C., 5% CO2 overnight to allow for cell attachment to the plate;
(2) The test compound is added to the cells at day 2. The compounds are prepared in the appropriate growth medium (10% CS+2 mM) GLN DMEM for NIH3T3C7 cells; 2% FBS+2 mM GLN DMEM for HER2C7 cells) in a 96 well plate, and serially diluted. A total of 100 μl/well medium of the diluted compounds is added into the cells. The total volume of each well is 200 μl. Quadruplicates (wells) and 11 concentration points are applied to each compound tested.
(3) After the cells are treated with the compound for 4 days, the cells are washed with PBS and fixed with 200 μl/well ice-cold 10% TCA for one hour at 0-5° C. condition.
(4) Remove TCA and rinse wells 5 times with deionized water. Dry plates upside down with paper towels. Stain cells with 0.4% SRB at 100 μl/well for 10 minutes.
(5) Pour off SRB and rinse plate 5 times with 1% acetic acid. Dry plate completely.
(6) Solubilize the dye with 10 mM Tris-base at 100 μl/well for 10 minutes on a shaker.
(7) Read the plate at dual wavelengths at 570 nm and 630 nm on Dynatech Elisa plate reader.

T1 sequence (P09619 33-1106): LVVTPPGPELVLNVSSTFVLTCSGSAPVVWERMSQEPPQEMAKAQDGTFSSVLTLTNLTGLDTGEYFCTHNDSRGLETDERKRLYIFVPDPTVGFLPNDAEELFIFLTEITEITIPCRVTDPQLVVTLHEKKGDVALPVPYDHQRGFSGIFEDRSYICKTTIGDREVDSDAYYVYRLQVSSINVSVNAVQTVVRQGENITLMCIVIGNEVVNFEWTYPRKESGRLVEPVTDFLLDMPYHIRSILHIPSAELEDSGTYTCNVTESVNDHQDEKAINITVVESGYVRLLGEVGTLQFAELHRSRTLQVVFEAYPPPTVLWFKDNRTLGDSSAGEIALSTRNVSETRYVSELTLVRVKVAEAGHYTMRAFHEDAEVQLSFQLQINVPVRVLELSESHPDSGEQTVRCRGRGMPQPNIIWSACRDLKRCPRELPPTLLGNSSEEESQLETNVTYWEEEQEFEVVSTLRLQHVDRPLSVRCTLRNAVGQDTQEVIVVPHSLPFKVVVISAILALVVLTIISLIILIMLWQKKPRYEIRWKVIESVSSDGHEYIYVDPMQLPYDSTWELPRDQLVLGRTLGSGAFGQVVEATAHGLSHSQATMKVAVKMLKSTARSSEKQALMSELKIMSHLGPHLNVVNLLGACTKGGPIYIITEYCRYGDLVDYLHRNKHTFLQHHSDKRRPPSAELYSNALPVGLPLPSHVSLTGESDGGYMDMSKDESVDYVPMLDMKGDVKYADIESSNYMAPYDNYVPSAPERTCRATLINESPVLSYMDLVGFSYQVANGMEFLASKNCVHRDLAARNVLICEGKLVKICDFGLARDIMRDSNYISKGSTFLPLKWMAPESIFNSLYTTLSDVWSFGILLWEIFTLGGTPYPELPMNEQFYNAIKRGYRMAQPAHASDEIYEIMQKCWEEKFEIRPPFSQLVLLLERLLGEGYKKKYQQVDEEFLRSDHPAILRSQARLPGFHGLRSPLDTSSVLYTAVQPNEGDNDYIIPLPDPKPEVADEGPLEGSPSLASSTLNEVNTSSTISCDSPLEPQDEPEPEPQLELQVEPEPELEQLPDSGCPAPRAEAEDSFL

Row | IC50 [1] | IC50 [2] | SMILES | IC50 [3]
1 | 60 µM | 25 µM | N#C/C(=C\c1ccc(O)c(O)c1)C(=S)NCc1ccccc1 [Compound M13] | –
2 | – | – | CC(C)c1cc(/C=C(\C#N)S(=O)(=O)c2ccccc2)cc(C(C)C)c1O [Compound M30] | 12 µM
3 | – | – | CC(C)c1cc(/C=C(\C#N)S(=O)(=O)/C(C#N)=C/c2cc(C(C)C)c(O)c(C(C)C)c2)cc(C(C)C)c1O [Compound M29] | 15 µM
4 | – | – | CC(C)(C)c1cc(/C=C(\C#N)S(=O)(=O)c2ccccn2)cc(C(C)(C)C)c1O [Compound M34, (E)-3-(3,5-di-t-Butyl-4-hydroxyphenyl)-2-[(pyrid-2-yl)sulfonyl]acrylonitrile] | 5.5 µM
5 | – | – | CC(C)(C)c1cc(/C=C(\C#N)C(=O)NCCCc2ccccc2)cc(C(C)(C)C)c1O [Compound M20, (E)-3-(3,5-di-t-Butyl-4-hydroxyphenyl)-2-[(3-phenyl-n-propyl)aminocarbonyl]acrylonitrile] | 4 µM
6 | – | – | CC(C)(C)c1cc(/C=C(\C#N)C(=O)Nc2ccc(C(F)(F)F)cc2)cc(C(C)(C)C)c1O [Compound M35, (E)-3-(3,5-di-t-Butyl-4-hydroxyphenyl)-2-[(4-trifluoromethyl)phenylaminocarbonyl]acrylonitrile] | 0.25 µM
7 | 35 µM | 9 µM | N#C/C(=C\c1cc(O)c(O)c(I)c1)C(=O)NCCCc1ccccc1 [Compound M16] | –
8 | – | – | CC(C)c1cc(/C=C(\C#N)C(=O)NCCCc2ccccc2)cc(C(C)C)c1O [Compound M21, (E)-3-(3,5-Diisopropyl-4-hydroxyphenyl)-2-[(3-phenyl-n-propyl)aminocarbonyl]acrylonitrile] | 70 µM
9 | – | 20 µM | N#C/C(=C\c1ccc(O)c(O)c1)C(=O)Nc1cccc(C(F)(F)F)c1 [Compound M15] | –
10 | > 100 µM | 4 µM | CC(C)(C)c1cc(/C=C(\C#N)C(N)=S)cc(C(C)(C)C)c1O [Compound M11] | 30 µM
11 | – | – | CC(C)c1cc(/C=C(\C#N)S(=O)(=O)CC#N)cc(C(C)C)c1O [Compound M27] | 50 µM
12 | – | – | Cc1cc(/C=C(\C#N)S(=O)(=O)c2ccccn2)cc(C)c1O [Compound M32] | 80 µM
13 | – | – | CC(C)c1cc(/C=C(\C#N)S(=O)(=O)c2ccccn2)cc(C(C)C)c1O [Compound M26] | > 100 µM
14 | – | – | CC(C)(C)c1cc(/C=C(\C#N)S(=O)(=O)c2ccccc2)cc(C(C)(C)C)c1O [Compound M33, (E)-3-(3,5-di-t-Butyl-4-hydroxyphenyl)-2-(phenylsulfonyl)acrylonitrile] | 9 µM
15 | – | – | Cc1cc(/C=C(\C#N)S(=O)(=O)c2ccccc2)cc(C)c1O [Compound M31] | > 100 µM
